Reference: PubChem BioAssay (NCI)
Several values for one entry are separate records, joined by “and”; a condition that tells them apart may be missing. Identical values can stand only once.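 Values below derive from 48-hour exposures of cells grown in 96-well plates, with endpoints linearly interpolated between the two concentrations bracketing the appropriate inhibition level. GI50 marks 50% less growth. TGI denotes the concentration required for complete inhibition of growth.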

Tests used:
Experiment in all cases: inhibition of tumour cell growth, NCI panel, 48 h
UO-31 renal = system: UO-31 renal
SW-620 colon = system: SW-620 colon
786-0 renal = system: 786-0 renal
SF-539 CNS = system: SF-539 CNS
KM12 colon = system: KM12 colon
A549 NSCLC = system: A549 NSCLC
MCF7 breast = system: MCF7 breast
MDA-MB-231 breast = system: MDA-MB-231 breast
UACC-257 melanoma = system: UACC-257 melanoma
HOP-92 NSCLC = system: HOP-92 NSCLC

Row | SMILES | GI50 (UO-31 renal) [µM] | TGI (UO-31 renal) | GI50 (SW-620 colon) [µM] | TGI (SW-620 colon) | GI50 (786-0 renal) [µM] | TGI (786-0 renal) | GI50 (SF-539 CNS) [µM] | TGI (SF-539 CNS) | GI50 (KM12 colon) [µM] | TGI (KM12 colon) | GI50 (A549 NSCLC) [µM] | TGI (A549 NSCLC) | GI50 (MCF7 breast) [µM] | TGI (MCF7 breast) | GI50 (MDA-MB-231 breast) [µM] | TGI (MDA-MB-231 breast) | GI50 (UACC-257 melanoma) [µM] | TGI (UACC-257 melanoma) | GI50 (HOP-92 NSCLC) [µM] | TGI (HOP-92 NSCLC)
1 | CC1=C/C(O)CC(=O)Cc2nc(co2)C(=O)N2CCC=C2C(=O)OC(C(C)C)C(C)/C=C\C(=O)NC/C=C\1 (centres undefined) | 25.7 | 91.7 µM | 10.5 | 35 µM and 37.7 µM | 26.2 | 90.1 µM and 60.8 µM | 10.9 | 46.3 µM and > 100 µM | 15.1 | 30.3 µM and 25.3 µM | 25.1 | > 100 µM | 5.89 | 25.1 µM and 41.2 µM | 27.1 | > 71.4 µM and 61.4 µM | 12.6 | 35.5 µM and > 100 µM | 18 | > 86.2 µM
2 | C=C1[C@@H](O)C[C@H]2C(C)(C)C[C@H](Cl)C[C@]2(C)[C@H]1C[C@H](O)[C@H]1CC(=O)NC1=O | 0.0185 | 0.212 µM | 0.0114 | 4.94 µM | 0.0149 | 0.136 µM | < 0.0109 | 0.0597 µM | < 0.012 | 0.441 µM | 0.0117 | 0.145 µM | < 0.01 | 0.106 µM | 0.015 | 0.19 µM | 0.0193 | 0.122 µM | < 0.0115 | 0.179 µM
3 | CNC1=CC(=O)C2=C(C1=O)C1C3=C(C(=O)C(Br)=C(OC)C3=O)C2c2ccccc21 (centres undefined) | 1.98 | 5.87 µM | 2.88 | > 50 µM | 1.38 | 3.5 µM | 1.23 | 2.75 µM | 1.87 | 5.93 µM | 20.6 | > 50 µM | 2.65 | 26.2 µM | 1.41 | 3.17 µM | 4.58 | > 50 µM | 1.24 | 2.97 µM
4 | CNC12C3C4C1C1C2C3C41C(=O)N[C@H](C(=O)N(C)[C@H](C[C@@H](OC(C)=O)c1nc(C(=O)N[C@@H](Cc2ccccc2)C[C@H](C)C(=O)OC)cs1)C(C)C)C1CC1 (some centres undefined) | 2.25 | > 15 µM | 0.21 | > 15 µM | 0.577 | > 15 µM | 0.322 | 0.93 µM | 0.276 | 6.69 µM | 1.53 | > 15 µM | 0.0405 | > 15 µM | 0.402 | 3.33 µM | 2.99 | > 15 µM | 1.8 | 8.93 µM
5 | OCC#CCCCCOCC#Cc1ccccc1C#CCOCCCCC#CCO | 55.5 | > 100 µM | 21.9 | 50.9 µM | 36.9 | > 100 µM | 17.6 | 33.2 µM | 19.6 | 40.5 µM | 39.8 | > 100 µM | 47.5 | > 100 µM | 16.1 | 38.3 µM | 37.3 | > 100 µM | 28.8 | 62 µM
6 | Cc1ccc(NC(=O)N2CCCCC2)cc1[N+](=O)[O-] | > 100 | > 100 µM | > 100 | > 100 µM | > 100 | > 100 µM | > 100 | > 100 µM | > 100 | > 100 µM | > 100 | > 100 µM | > 100 | > 100 µM | > 100 | > 100 µM | > 100 | > 100 µM | > 100 | > 100 µM
7 | OCc1ncc(-c2ccccc2)s1 | > 100 | > 100 µM | > 100 | > 100 µM | > 100 | > 100 µM | > 100 | > 100 µM | > 100 | > 100 µM | > 100 | > 100 µM | > 100 | > 100 µM | > 100 | > 100 µM | > 100 | > 100 µM | 76.5 | > 100 µM
8 | Clc1ccc(N/N=C(\c2ccccc2)c2ccccn2)nc1 | 0.163 | 2.38 µM and 0.817 µM | 0.0958 | > 65.3 µM | 0.291 | 15.8 µM | 0.297 | 5.57 µM and 9.47 µM | 0.39 | > 41.4 µM and 5.81 µM | – | > 100 µM and 15.9 µM | 0.0302 | > 100 µM | 0.237 | > 65.8 µM and 48.4 µM | 0.154 | 12 µM and 20.7 µM | 0.445 | > 66.2 µM and 10.2 µM
9 | CN(C)CCCN1c2ccc(O)cc2Sc2ccc(Cl)cc21 | – | 21.7 µM | – | 39.6 µM | – | 24 µM | – | 28.7 µM | – | 23 µM | – | 28.6 µM | – | 26.5 µM | – | 23.6 µM | – | 4.14 µM | – | 17.2 µM
10 | N=C1N=C(N)S/C1=C\c1ccc2ncccc2c1 | > 25 | > 25 µM | > 25 | > 25 µM | > 25 | > 25 µM | > 25 | > 25 µM | > 25 | > 25 µM | > 25 | > 25 µM | > 25 | > 25 µM | > 25 | > 25 µM | > 25 | > 25 µM | > 25 | > 25 µM
11 | Oc1c(Cl)cc(CN(Cc2cc(Cl)c(O)c(Cl)c2)C2CCCCC2)cc1Cl | – | > 100 µM | – | > 100 µM | – | > 100 µM | – | > 100 µM | – | > 100 µM | – | > 100 µM | – | > 100 µM | – | > 100 µM | – | > 100 µM | – | > 100 µM
12 | O=C(Nc1nc(-c2ccccc2)cs1)c1cc(O)c(O)c(O)c1 | 0.605 | 19.4 µM | 2.66 | 37.4 µM | 3.38 | 10.6 µM | 2.77 | 11.9 µM | 8.02 | 26.9 µM | 5.62 | 51.4 µM | 4.73 | > 100 µM | 1.58 | 24.4 µM | 7.84 | 52.1 µM | 1.56 | 9.66 µM
13 | Cc1ccc(N(/C=C/C(=O)C(F)(F)F)CC(=O)c2ccc(Cl)c(Cl)c2)cc1 | 5.77 | 19.1 µM | 2.88 | 15.2 µM | 13.5 | 26.3 µM | 2.77 | 17 µM | 3.53 | 15 µM | 9.37 | 21.3 µM | 7.27 | 20.2 µM | 3.12 | 17.9 µM | 10.3 | 22 µM | 8.77 | 21.1 µM
14 | COc1ccccc1Nc1nc2ccccc2c2occc12 | 14.7 | 24 µM | 22.6 | > 50 µM | 15.3 | 38.7 µM | 9.76 | 21.5 µM | 16.1 | > 50 µM | 14.6 | 41.4 µM | 15.9 | > 50 µM | 10.9 | 29.1 µM | 14.3 | 35.7 µM | 24.1 | > 50 µM
